Source: US20100216761A1, “NOVEL AZETIDINONES USEFUL AS INHIBITORS OF ELASTASE” (priority 2007, published 2010)

Legend:
[1] = molecular target: T1, Human Leukocyte Elastase (HLE) (Homo sapiens, UniProt P08246); experiment: HLE time-dependent reactivation (off-rate) assay; type: biochemical; details: head-to-head with Examples 1 and 3
T1 construct: The PMN lysates were prepared by isolating human neutrophils from whole blood; from tissue; host or cells: human neutrophils (PMN) isolated from whole blood, lysed by sonication in PBS
T1 sequence (P08246 30-267): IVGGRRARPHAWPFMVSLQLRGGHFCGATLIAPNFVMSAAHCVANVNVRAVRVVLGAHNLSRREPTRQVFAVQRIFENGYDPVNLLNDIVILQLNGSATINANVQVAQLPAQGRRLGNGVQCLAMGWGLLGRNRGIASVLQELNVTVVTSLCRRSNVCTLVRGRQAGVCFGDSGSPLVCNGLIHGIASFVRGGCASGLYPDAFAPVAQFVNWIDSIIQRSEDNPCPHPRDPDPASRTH
Protocol: An important and desirable aspect of these mechanism-based HLE inhibitors is also the extent to which the enzyme remains inactivated or, in other words, the rate at which the modified inhibitor comes off the enzyme after the inactivation event has occurred and which then gives back the active HLE enzyme (see Note 2c and 4). This property was assessed in a time-dependent reactivation assay and the results were calculated as a first-order rate constant expressed as their half-lives in hours (t1/2). […] Under head-to-head conditions (n=2) with Examples 1 and 3, the off-rate for the comparator Compound #290 of U.S. Pat. No. 5,591,737 was determined to be 7.1 hrs, or about 2.5-2.6 times as fast.
Elastase was incubated with 100-fold molar excess of inhibitor in TES buffer (0.045M TES, 0.45M NaCl, pH 7.5, 0.1% BSA) at room temperature for 60 minutes. After the incubation was complete, the samples were loaded onto prepared columns (Micro BioSpin Chromatography Columns-Bio-Gel P-6 Columns Bio-Rad Cat# 732-6221; prepared as directed by the manufacturer). […] At specific time points, the filtrate was monitored for elastase activity by adding the filtrate to 1 mM substrate (MeoSucc-AAPV-pNA; Elastin Products Cat# FH237) in TES buffer (0.045M TES, 0.45M NaCl, pH 7.5) and measuring the absorbance at 410 nm. The absorbance was monitored every 10 seconds for 5 minutes. […]

[2] = Liver microsome stability in 4 species: human; type: in vitro ADME; details: substrate 0.5 uM, microsome 0.25 mg/mL
Protocol: (§1) In a separate experiment as exemplified in Table 3, the stability of the current Example 1 and the comparator Compound #290 in incubations with microsome preparations from 4 different species were also determined (Note 5).
(§2) X. S. Tong, et. al., J. of Chromatography, 2006, 833, 165.

[3] = Liver microsome stability in 4 species: dog; type: in vitro ADME; details: substrate 0.5 uM, microsome 0.25 mg/mL
Protocol: as §1, §2

[4] = Liver microsome stability in 4 species: rat; type: in vitro ADME; details: substrate 0.5 uM, microsome 0.25 mg/mL
Protocol: as §1, §2

[5] = Liver microsome stability in 4 species: monkey; type: in vitro ADME; details: substrate 0.5 uM, microsome 0.25 mg/mL
Protocol: as §1, §2

[6] = Rat 7 day oral dose limiting toxicity assessment; type: in vivo; details: for mortality: 750 mpk dose group, n=5 per group; for NO Effect Level (NOEL): in vivo, po, 7 days; for Dose limiting toxicity assessment, 25 mpk: p.o. 25 mg per kg per day for 7 days; for Dose limiting toxicity assessment, 25 mpk / Dose limiting toxicity assessment, 100 mpk / Dose limiting toxicity assessment, 750 mpk: mono-L-malic acid salts; for Dose limiting toxicity assessment, 100 mpk: p.o. 100 mg per kg per day for 7 days; for Dose limiting toxicity assessment, 750 mpk: p.o. 750 mg per kg per day for 7 days; for physical signs of toxicity: p.o. 100 mpk dose for 7 days
Protocol: The observations summarized in Table 8 indicate that both Example 1 and Compound #290 have the same NO Effect Level in a Dose Limiting Toxicity assay in the rat (NOEL=100 mpk/day for 7 days for both) (Note 11), and would argue against the use of higher doses of Compound #290 to achieve the same plasma exposure as Example 1 in the clinic.
Example 1 and Compound #290 as their mono-L-malic acid salts were formulated in 0.5% Methocel and dosed p.o. at 25, 100 and 750 mg per k per day (free base equivalent) for 7 days (n=5 animals in each group). During the dosing period observation of any physical signs of toxicity were noted. Upon termination on day 8, a standard battery of blood chemistry and tissue analyses were performed and evaluated for significant effects compared to vehicle controls. […] At the 750 mpk dose level several adverse effects were observed including mortality (⅖ for Example 1 on Day 7 and 8 in the 750 mpk dose group; ⅕ on day 4 for Compound #290 in the 750 mpk dose group).

CYP3A4 = CYP3A4 (Homo sapiens, UniProt P08684); experiment: CYP-P450 reversible inhibition, 3A4; type: in vitro ADME; parameters: host or cells: human liver microsomes or recombinant P450 microsomes; details: probe fluorogenic probe (not named); human liver microsomes or recombinant P450 microsomes; fluorescent probe
Protocol: This assay measured the reversible inhibition of the test compounds against three cytochrome P450 isozymes (CYP-P450 3A4, 2C9 and 2D6) in an automated screening formate. […] Cumene hydroperoxide, NADPH or NADPH regenerating systems can be used as electron donors for the P450 catalytic cycle. Control incubations containing no inhibitor or no fluorescent probe were performed to evaluate the 100% and 0% activities, respectively. The activity of P450 enzyme was evaluated in the presence of 0.137, 0.273, 0.547, 1.094, 2.188, 4.375, 8.750, 17.5, 35.0 and 70.0 μM concentrations of the test compounds. Inhibition curves were generated and IC50 values were calculated for each tested compound using standard techniques.

CYP3A4, sequence (P08684 whole entry): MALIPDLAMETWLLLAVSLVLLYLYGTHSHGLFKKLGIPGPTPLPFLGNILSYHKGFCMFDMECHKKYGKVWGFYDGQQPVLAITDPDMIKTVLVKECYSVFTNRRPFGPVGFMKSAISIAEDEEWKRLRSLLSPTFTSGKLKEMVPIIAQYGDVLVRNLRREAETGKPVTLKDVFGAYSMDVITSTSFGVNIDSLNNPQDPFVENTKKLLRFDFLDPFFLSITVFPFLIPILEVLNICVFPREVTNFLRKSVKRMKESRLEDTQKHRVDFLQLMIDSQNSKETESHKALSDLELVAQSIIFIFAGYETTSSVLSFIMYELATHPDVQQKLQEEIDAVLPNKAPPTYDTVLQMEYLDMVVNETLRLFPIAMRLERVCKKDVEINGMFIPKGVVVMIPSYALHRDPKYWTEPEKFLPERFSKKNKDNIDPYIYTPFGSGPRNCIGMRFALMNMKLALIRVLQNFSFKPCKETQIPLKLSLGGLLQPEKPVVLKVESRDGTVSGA

SMILES	off-rate relative to Examples 1 and 3 (times as fast) [1]	% Left @ 30 min [2] [%]	% Left @ 60 min [2] [%]	% Left @ 30 min [3] [%]	% Left @ 60 min [3] [%]	% Left @ 30 min [4] [%]	% Left @ 60 min [4] [%]	% Left @ 30 min [5] [%]	% Left @ 60 min [5] [%]	mortality [6]	NO Effect Level (NOEL) [6] [mpk/day]	Dose limiting toxicity assessment, 25 mpk ([6]; 25 mg/kg)	Dose limiting toxicity assessment, 100 mpk ([6]; 100 mg/kg)	Dose limiting toxicity assessment, 750 mpk [6]	physical signs of toxicity [6]	IC50 (CYP3A4) [µM]	Dose limiting toxicity assessment, 25 mpk ([6]; listed as xample 1, 25 mg/kg)	Dose limiting toxicity assessment, 100 mpk ([6]; listed as xample 1, 100 mg/kg)
CCC[C@@H](NC(=O)N1C(=O)C(CC)(CC)[C@@H]1Oc1ccc(C(=O)N(C)CCN(C)C)cc1)c1ccc(OC)cc1 [Compound #290, reference compound]	2.5-2.6 times	93	88	100	102	99	93	90	67	⅕	100	no adverse effects	no adverse effects	Significant toxicity observed	salivation	> 8		
CCC[C@@H](NC(=O)N1C(=O)C(CC)(CC)[C@@H]1Oc1ccc(C(=O)N(CC)CCN(C)C)cc1)c1ccc(OC(F)(F)F)cc1 [Example 1, 2-(S)-[4-(((2-(Dimethylamino)ethyl)ethylamino)carbonyl)phenoxy]-3,3-diethyl-N-[1-(R)-(4-(trifluoromethoxy)phenyl)butyl]-4-oxo-1-azetidinecarboxamide]		92	92	93	86	96	94	91	77	⅖	100	no adverse effects	no adverse effects	Significant toxicity observed	salivation	> 8	No effects	No effects
